Where two headings read alike, the source gives them in different places. Peptide text beside a SMILES is read from it. * marks the point of attachment. C16 diacid = O=C(O)CCCCCCCCCCCCCCC(=O)*; Stearoyl = CCCCCCCCCCCCCCCCCC(=O)*
Legend:
human GIP receptor [1] = molecular target: T1, human GIP receptor (Homo sapiens, UniProt P48546); test: cAMP accumulation assay, antagonism of a GIP-mediated cAMP response (50-80% of max); format: cell-based; settings: transiently transfected COS-7 cells
T1 construct: host or cells: COS-7, transient transfection (calcium phosphate), cDNA in pCMV-Script
T1 sequence (P48546 22-466): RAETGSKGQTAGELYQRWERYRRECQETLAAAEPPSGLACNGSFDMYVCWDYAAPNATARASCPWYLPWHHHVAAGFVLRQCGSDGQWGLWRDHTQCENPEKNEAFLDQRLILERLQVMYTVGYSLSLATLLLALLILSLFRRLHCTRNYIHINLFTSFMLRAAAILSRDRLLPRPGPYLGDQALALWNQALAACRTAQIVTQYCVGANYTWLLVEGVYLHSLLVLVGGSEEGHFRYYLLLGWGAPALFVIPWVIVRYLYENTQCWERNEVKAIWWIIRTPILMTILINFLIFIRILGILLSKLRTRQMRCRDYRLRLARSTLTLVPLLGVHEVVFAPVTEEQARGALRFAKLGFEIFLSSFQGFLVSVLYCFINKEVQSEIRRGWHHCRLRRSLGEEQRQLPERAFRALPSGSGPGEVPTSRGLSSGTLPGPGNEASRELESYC
Protocol: The day after, the cells were washed twice with Hepes buffered saline (HBS) buffer and incubated with HBS and 1 mM 3-isobutyl-1-methylxanthine (IBMX) for 30 min at 37° C. […] The HitHunter™ cAMP XS assay (DiscoveRx) was carried out according to the manufacturer's instructions.

human GIP receptor [2] = molecular target: T1, human GIP receptor; test: cAMP accumulation assay, agonism (ligand alone); format: cell-based; settings: Table 1; for Emax: COS-7, intrinsic cAMP activity
[3] = Table 1 and text, read-out: cAMP antagonism nM (IC50, antagonistic potency)
[4] = COS-7 cells, read-out: cAMP agonism nM (EC50)

CC[C@H](C)[C@H](NC(=O)[C@H](CO)NC(=O)[C@H](Cc1ccc(O)cc1)NC(=O)[C@H](CC(=O)O)NC(=O)[C@H](CO)NC(=O)[C@@H](NC(=O)[C@H](Cc1ccccc1)NC(=O)[C@@H](N)[C@@H](C)O)[C@@H](C)CC)C(=O)N[C@@H](C)C(=O)N[C@@H](CCSC)C(=O)N[C@@H](CC(=O)O)C(=O)N[C@@H](CCCNC(=N)N)C(=O)N[C@H](C(=O)N[C@@H](CCCCNC(=O)CCCCCCCCCCCCCCC(=O)O)C(=O)N[C@@H](CCC(N)=O)C(=O)N[C@@H](CCC(N)=O)C(=O)N[C@@H](CC(=O)O)C(=O)N[C@@H](Cc1ccccc1)C(=O)N[C@H](C(=O)N[C@@H](CC(N)=O)C(=O)N[C@@H](Cc1c[nH]c2ccccc12)C(=O)N[C@@H](CC(C)C)C(=O)N[C@@H](CC(C)C)C(=O)N[C@@H](C)C(=O)N[C@@H](CCC(N)=O)C(=O)N[C@@H](CCCNC(=N)N)C(N)=O)C(C)C)[C@@H](C)CC [AT157, [hGIP(5-30)NH2[K16R; H18K; K30R]-C16diacid/18]] (H-TFISDYSIAMDRIK(C16 diacid)QQDFVNWLLAQR-NH2; N-terminus assumed) showed an IC50 (human GIP receptor [1]; given as log IC50 (negative sign), Table 1, read-out: cAMP antagonism log (converted)) of 7.94 nM, an IC50 (human GIP receptor [1]; [3]) of 7 nM and an Emax (human GIP receptor [2]; COS-7 cells) of 12%. It also gave an EC50 (human GIP receptor [2]; given as log EC50 (negative sign), read-out: cAMP agonism EC50 (log) (converted)) of 10 nM.
CC[C@H](C)[C@H](NC(=O)[C@H](CO)NC(=O)[C@H](Cc1ccc(O)cc1)NC(=O)[C@H](CCCCNC(=O)CCCCCCCCCCCCCCC(=O)O)NC(=O)[C@H](CO)NC(=O)[C@@H](NC(=O)[C@H](Cc1ccccc1)NC(=O)[C@@H](NC(=O)CNC(=O)[C@@H](N)CCC(=O)O)[C@@H](C)O)[C@@H](C)CC)C(=O)N[C@@H](C)C(=O)N[C@@H](CCSC)C(=O)N[C@@H](CC(=O)O)C(=O)N[C@@H](CCCCN)C(=O)N[C@H](C(=O)N[C@@H](Cc1c[nH]cn1)C(=O)N[C@@H](CCC(N)=O)C(=O)N[C@@H](CCC(N)=O)C(=O)N[C@@H](CC(=O)O)C(=O)N[C@@H](Cc1ccccc1)C(=O)N[C@H](C(=O)N[C@@H](CC(N)=O)C(=O)N[C@@H](Cc1c[nH]c2ccccc12)C(=O)N[C@@H](CC(C)C)C(=O)N[C@@H](CC(C)C)C(=O)N[C@@H](C)C(=O)N[C@@H](CCC(N)=O)C(=O)N[C@@H](CCCCN)C(N)=O)C(C)C)[C@@H](C)CC [AT300, [hGIP(3-30)NH2[D9K]-C16diacid/9]] (H-EGTFISK(C16 diacid)YSIAMDKIHQQDFVNWLLAQK-NH2; N-terminus assumed) was tested, and the IC50 (human GIP receptor [1]; [3]) was 22 nM and the “cAMP agonism Emax” value (human GIP receptor [2]; intrinsic cAMP activity, COS-7 cells) was “no ag”.
CC[C@H](C)[C@H](NC(=O)[C@H](CO)NC(=O)[C@H](Cc1ccc(O)cc1)NC(=O)[C@H](CC(=O)O)NC(=O)[C@H](CO)NC(=O)[C@@H](NC(=O)[C@H](Cc1ccccc1)NC(=O)[C@@H](NC(=O)CNC(=O)[C@@H](N)CCC(=O)O)[C@@H](C)O)[C@@H](C)CC)C(=O)N[C@@H](C)C(=O)N[C@@H](CCSC)C(=O)N[C@@H](CC(=O)O)C(=O)N[C@@H](CCCCN)C(=O)N[C@@H](CCCCNC(=O)CCCCCCCCCCCCCCC(=O)O)C(=O)N[C@@H](Cc1c[nH]cn1)C(=O)N[C@@H](CCC(N)=O)C(=O)N[C@@H](CCC(N)=O)C(=O)N[C@@H](CC(=O)O)C(=O)N[C@@H](Cc1ccccc1)C(=O)N[C@H](C(=O)N[C@@H](CC(N)=O)C(=O)N[C@@H](Cc1c[nH]c2ccccc12)C(=O)N[C@@H](CC(C)C)C(=O)N[C@@H](CC(C)C)C(=O)N[C@@H](C)C(=O)N[C@@H](CCC(N)=O)C(=O)N[C@@H](CCCCN)C(N)=O)C(C)C [AT307, [hGIP(3-30)NH2[I17K]-C16diacid/17]] (H-EGTFISDYSIAMDKK(C16 diacid)HQQDFVNWLLAQK-NH2; N-terminus assumed) showed an IC50 (human GIP receptor [1]; [3]) of 93 nM, an Emax (human GIP receptor [2]; COS-7 cells) of 4.9% and an EC50 (human GIP receptor [2]; [4]) of 14 nM.
With CCCCCCCCCCCCCCCCCC(=O)NCCCC[C@H](NC(=O)[C@@H](NC(=O)[C@H](CCCCN)NC(=O)[C@H](CC(=O)O)NC(=O)[C@H](CCSC)NC(=O)[C@H](C)NC(=O)[C@@H](NC(=O)[C@H](CO)NC(=O)[C@H](Cc1ccc(O)cc1)NC(=O)[C@H](CC(=O)O)NC(=O)[C@H](CO)NC(=O)[C@@H](NC(=O)[C@H](Cc1ccccc1)NC(=O)[C@@H](N)[C@@H](C)O)[C@@H](C)CC)[C@@H](C)CC)[C@@H](C)CC)C(=O)N[C@@H](CCC(N)=O)C(=O)N[C@@H](CCC(N)=O)C(=O)N[C@@H](CC(=O)O)C(=O)N[C@@H](Cc1ccccc1)C(=O)N[C@H](C(=O)N[C@@H](CC(N)=O)C(=O)N[C@@H](Cc1c[nH]c2ccccc12)C(=O)N[C@@H](CC(C)C)C(=O)N[C@@H](CC(C)C)C(=O)N[C@@H](C)C(=O)N[C@@H](CCC(N)=O)C(=O)N[C@@H](CCCCN)C(N)=O)C(C)C [AT161, [hGIP(5-30)NH2[H18K]-C18/18]] (H-TFISDYSIAMDKIK(Stearoyl)QQDFVNWLLAQK-NH2; N-terminus assumed) the IC50 (human GIP receptor [1]; [3]) was 252 nM and the Emax (human GIP receptor [2]; COS-7 cells) was 7%.
With CC[C@H](C)[C@H](NC(=O)[C@H](CO)NC(=O)[C@H](Cc1ccc(O)cc1)NC(=O)[C@H](CC(=O)O)NC(=O)[C@H](CO)NC(=O)[C@@H](NC(=O)[C@H](Cc1ccccc1)NC(=O)[C@@H](NC(=O)CNC(=O)[C@@H](N)CCC(=O)O)[C@@H](C)O)[C@@H](C)CC)C(=O)N[C@@H](C)C(=O)N[C@@H](CCCCNC(=O)CCCCCCCCCCCCCCC(=O)O)C(=O)N[C@@H](CC(=O)O)C(=O)N[C@@H](CCCCN)C(=O)N[C@H](C(=O)N[C@@H](Cc1c[nH]cn1)C(=O)N[C@@H](CCC(N)=O)C(=O)N[C@@H](CCC(N)=O)C(=O)N[C@@H](CC(=O)O)C(=O)N[C@@H](Cc1ccccc1)C(=O)N[C@H](C(=O)N[C@@H](CC(N)=O)C(=O)N[C@@H](Cc1c[nH]c2ccccc12)C(=O)N[C@@H](CC(C)C)C(=O)N[C@@H](CC(C)C)C(=O)N[C@@H](C)C(=O)N[C@@H](CCC(N)=O)C(=O)N[C@@H](CCCCN)C(N)=O)C(C)C)[C@@H](C)CC [AT305, [hGIP(3-30)NH2[M14K]-C16diacid/14]] (H-EGTFISDYSIAK(C16 diacid)DKIHQQDFVNWLLAQK-NH2; N-terminus assumed) the IC50 (human GIP receptor [1]; [3]) was 166 nM, the Emax (human GIP receptor [2]; COS-7 cells) was 12% and the EC50 (human GIP receptor [2]; [4]) was 8 nM.
With CC[C@H](C)[C@H](NC(=O)[C@H](CO)NC(=O)[C@H](Cc1ccc(O)cc1)NC(=O)[C@H](CC(=O)O)NC(=O)[C@H](CCCCNC(=O)CCCCCCCCCCCCCCC(=O)O)NC(=O)[C@@H](NC(=O)[C@H](Cc1ccccc1)NC(=O)[C@@H](NC(=O)CNC(=O)[C@@H](N)CCC(=O)O)[C@@H](C)O)[C@@H](C)CC)C(=O)N[C@@H](C)C(=O)N[C@@H](CCSC)C(=O)N[C@@H](CC(=O)O)C(=O)N[C@@H](CCCCN)C(=O)N[C@H](C(=O)N[C@@H](Cc1c[nH]cn1)C(=O)N[C@@H](CCC(N)=O)C(=O)N[C@@H](CCC(N)=O)C(=O)N[C@@H](CC(=O)O)C(=O)N[C@@H](Cc1ccccc1)C(=O)N[C@H](C(=O)N[C@@H](CC(N)=O)C(=O)N[C@@H](Cc1c[nH]c2ccccc12)C(=O)N[C@@H](CC(C)C)C(=O)N[C@@H](CC(C)C)C(=O)N[C@@H](C)C(=O)N[C@@H](CCC(N)=O)C(=O)N[C@@H](CCCCN)C(N)=O)C(C)C)[C@@H](C)CC [AT299, [hGIP(3-30)NH2[S8K]-C16diacid/8]] (H-EGTFIK(C16 diacid)DYSIAMDKIHQQDFVNWLLAQK-NH2; N-terminus assumed) the IC50 (human GIP receptor [1]; [3]) was 199 nM, the Emax (human GIP receptor [2]; COS-7 cells) was 15.2% and the EC50 (human GIP receptor [2]; [4]) was 15 nM.
For CC[C@H](C)[C@H](NC(=O)[C@H](CO)NC(=O)[C@H](Cc1ccc(O)cc1)NC(=O)[C@H](CC(=O)O)NC(=O)[C@H](CO)NC(=O)[C@@H](NC(=O)[C@H](Cc1ccccc1)NC(=O)[C@@H](NC(=O)CNC(=O)[C@@H](N)CCC(=O)O)[C@@H](C)O)[C@@H](C)CC)C(=O)N[C@@H](C)C(=O)N[C@@H](CCSC)C(=O)N[C@@H](CCCCNC(=O)CCCCCCCCCCCCCCC(=O)O)C(=O)N[C@@H](CCCCN)C(=O)N[C@H](C(=O)N[C@@H](Cc1c[nH]cn1)C(=O)N[C@@H](CCC(N)=O)C(=O)N[C@@H](CCC(N)=O)C(=O)N[C@@H](CC(=O)O)C(=O)N[C@@H](Cc1ccccc1)C(=O)N[C@H](C(=O)N[C@@H](CC(N)=O)C(=O)N[C@@H](Cc1c[nH]c2ccccc12)C(=O)N[C@@H](CC(C)C)C(=O)N[C@@H](CC(C)C)C(=O)N[C@@H](C)C(=O)N[C@@H](CCC(N)=O)C(=O)N[C@@H](CCCCN)C(N)=O)C(C)C)[C@@H](C)CC [AT306, [hGIP(3-30)NH2[D15K]-C16diacid/15]] (H-EGTFISDYSIAMK(C16 diacid)KIHQQDFVNWLLAQK-NH2; N-terminus assumed), the IC50 (human GIP receptor [1]; [3]) was 53 nM, the Emax (human GIP receptor [2]; COS-7 cells) was 6.6% and the EC50 (human GIP receptor [2]; [4]) was 13 nM.
